In assay [1] the test system is Trypanosoma brucei rhodesiense. As to the kind of experiment: In vitro antitrypanosomal activity against Trypanosoma brucei rhodesiense. The format is functional, organism-based.
Assay [2] relates to L6. As to the kind of experiment: Ratio of cytotoxicity against L6 cells to that of antitrypanosomal activity against Trypanosoma brucei rhodesiense. The assay is classed as functional.
Assay [3] has as its system L6. As to the kind of experiment: Cytotoxic activity against rat L6 cells. The format is cell-based.

The structures appear in SMILES notation.

As a reminder, the IC50 is the point on the concentration scale where inhibition reaches its midpoint. Low values mean higher potency, high ones lower potency. `N=C(N)c1cccc(/C=N/N=C(\N)N/N=C/c2cccc(C(=N)N)c2)c1`: half-maximal inhibition in assay [1] (IC50) was put at 4.5 µM.

`c1cc(Nc2ccc(NC3=NCCN3)cc2)ccc1NC1=NCCN1`: the Ratio in the assay with L6 [2] was 3072.

For the compound `N=C(N)Nc1ccc(Nc2ccc(NC(=N)N)cc2)cc1`, in assay [1], the half-maximal inhibitory concentration (IC50) stood at 0.022 µM. For the same compound, the Ratio in the assay on L6 [2] is on record as 29.5.

On to `CCOC(CNC(=N)Nc1ccc(Cc2ccc(NC(=N)NCC(OCC)OCC)cc2)cc1)OCC`, for which the Ratio with L6 [2] was more than 554. Turning to `O=C(NCCCN1CCN(C(=O)OCc2ccccc2)C1)OCc1ccccc1`, the IC50 amounted to 106 µM with L6 [3] and 3.9 µM in assay [1]. Further, the Ratio in the assay with L6 [2] is 27. As to `N=C(N)NCCCCCCCCCNC(=N)N`, the IC50 in the assay with L6 [3] is more than 265 µM; in assay [1] it was 0.049 µM. In addition, the Ratio with L6 [2] is more than 5294. Turning to `O=C(NCCCN(CCNC(=O)OCc1ccccc1)CCc1ccccc1)OCc1ccccc1`, the half-inhibitory concentration (IC50) in the assay with L6 [3] came out at 24.7 µM; in assay [1], 3.88 µM. Moreover, in the assay on L6 [2], the Ratio was 6.4.

On to `CC(C)(C)OC(=O)/N=C(/C=C(/O)OC(C)(C)C)Nc1ccc(Cc2ccc(N/C(=N\C(=O)OC(C)(C)C)NC(=O)OC(C)(C)C)cc2)cc1`, for which the 50% inhibitory concentration (IC50) in assay [1] amounted to 31.7 µM. In assay [1], `CN(CCCNC1=NCCN1)CCNC1=NCCN1` came in with a concentration for half-maximal inhibition (IC50) of 46.6 µM.

Regarding `C(CCCCNC1=NCCN1)CCCNC1=NCCN1`, the concentration for half-maximal inhibition (IC50) with L6 [3] was 4.2 µM; in assay [1], 0.453 µM. Also, the Ratio in the assay with L6 [2] turned out to be 9.4. Take `c1ccc(CCN(CCCNC2=NCCN2)CCNC2=NCCN2)cc1`: half-maximal inhibition in assay [1] (IC50) was put at 27.6 µM. On the same count and under the same terms, as for `CC(C)(C)OC(=O)/N=C(\NC(=O)OC(C)(C)C)Nc1ccc(S(=O)(=O)c2ccc(N/C(=N/C(=O)OC(C)(C)C)NC(=O)OC(C)(C)C)cc2)cc1`, the figure is 24.4 µM. Same read-out and setting: with `CC(C)(C)OC(=O)N1CCN(C(=O)OC(C)(C)C)C1=Nc1ccc(C(=O)c2ccc(N=C3N(C(=O)OC(C)(C)C)CCN3C(=O)OC(C)(C)C)cc2)cc1` the figure was 7.2 µM.

Take `N=C(N)Nc1ccc(C(=O)c2ccc(NC(=N)N)cc2)cc1`: in the assay with L6 [2], the Ratio was determined as 13.1.

As for `CC(C)(C)OC(=O)/N=C(/C=C(/O)OC(C)(C)C)Nc1ccc(Nc2ccc(N/C(=N\C(=O)OC(C)(C)C)NC(=O)OC(C)(C)C)cc2)cc1`, the 50% inhibitory concentration (IC50) with L6 [3] was 3.7 µM; in assay [1], 0.47 µM. The Ratio in the assay on L6 [2] turned out to be 7.9. With `C1CCC(/N=C(\NC2CCCCC2)N(CCCN=C(NC2CCCCC2)NC2CCCCC2)CCN=C(NC2CCCCC2)NC2CCCCC2)CC1`, the half-inhibitory concentration (IC50) in the assay with L6 [3] was more than 83 µM; in assay [1], 0.98 µM. In the assay with L6 [2], the Ratio was more than 82. In turn, `CC(C)(C)OC(=O)/N=C(\NC(=O)OC(C)(C)C)Nc1cccc(N2CCN(c3cccc(N/C(=N\C(=O)OC(C)(C)C)NC(=O)OC(C)(C)C)c3)CC2)c1` came in with a half-inhibitory concentration (IC50) in assay [1] of 13.8 µM. In assay [1], `C1CNC(N2CCC(N3CCN(C4=NCCN4)CC3)CC2)=N1` returned a half-inhibitory concentration (IC50) of 71.2 µM. As to `N=C(N)Nc1ccc(S(=O)(=O)c2ccc(NC(=N)N)cc2)cc1`, in the assay with L6 [2], the Ratio is reported as more than 51. On the same count and under the same terms, as for `CCOC(CNC(=N)Nc1ccc(Nc2ccc(NC(=N)NCC(OCC)OCC)cc2)cc1)OCC`, the figure is more than 767. Take `CC(C)(C)OC(=O)N1CCN(C(=O)OC(C)(C)C)C1=Nc1ccc(Cc2ccc(N=C3N(C(=O)OC(C)(C)C)CCN3C(=O)OC(C)(C)C)cc2)cc1`: the half-inhibitory concentration (IC50) in assay [1] was determined as 11.6 µM. As to `CCCCCCCCN=C(N)N`, in assay [1], the half-maximal inhibitory concentration (IC50) was 49.1 µM. With `CCCCC[P+](CCCCC)(CCCCC)c1ccc(C(=O)c2ccc([P+](CCCCC)(CCCCC)CCCCC)cc2)cc1.[Br-].[Br-]`, the 50% inhibitory concentration (IC50) in the assay with L6 [3] was 11.8 µM; in assay [1], 0.414 µM. The Ratio with L6 [2] was 28.5.

As for `O=[N+]([O-])c1ccc(-c2ccc([N+](=O)[O-])cc2)cc1`, the IC50 in assay [1] worked out at 41.8 µM. Turning to `N=C(N)NCCCCCCCCCCCCNC(=N)N`, the values for the IC50 (in the assay on L6 [3]; in assay [1]) were 0.63 µM and 0.047 µM, respectively. Besides, the Ratio with L6 [2] is 13. As for `N=C(N)NCCCCCCCCNC(=N)N`, the IC50 was more than 276 µM in the assay with L6 [3] and 0.251 µM in assay [1]. The Ratio with L6 [2] is more than 1100. With `O=C(c1ccc(NC2=NCCN2)cc1)c1ccc(NC2=NCCN2)cc1`, the Ratio in the assay with L6 [2] is more than 104.

On to `CCCCCCCCCN=C(N)N`, for which the IC50 in assay [1] worked out at 19.9 µM. As for `CCCNCCCNC1=NCCN1`, the half-inhibitory concentration (IC50) in assay [1] was found to be 113 µM. Turning to `N=C(N)NCCNCCNC(=N)N`, in assay [1], the concentration for half-maximal inhibition (IC50) is 16.1 µM. With `N=C(N)Nc1ccc(-c2ccc(NC(=N)N)cc2)cc1`, the concentration for half-maximal inhibition (IC50) with L6 [3] was determined as 46.4 µM; in assay [1] it was 0.27 µM. Besides, the Ratio in the assay on L6 [2] amounted to 172. In turn, `C1CNC(NCCNCCNC2=NCCN2)=N1` had an IC50 in assay [1] of 84.4 µM. Take `c1c[nH]c(Nc2ccc(Nc3ccc(Nc4ncc[nH]4)cc3)cc2)n1`: the IC50 with L6 [3] is 113 µM; in assay [1] it was 1.4 µM. Further, the Ratio with L6 [2] is on record as 80.7. In assay [1], `C(CNCCCNC1=NCCN1)CNC1=NCCN1` displayed a half-inhibitory concentration (IC50) of 29.7 µM. Regarding `C(CCCNC1=NCCN1)CCNC1=NCCN1`, the IC50 in assay [1] worked out at 19.3 µM. Turning to `CN(CCCNC(=O)OCc1ccccc1)CCNC(=O)OCc1ccccc1`, the IC50 in the assay on L6 [3] was 130 µM; in assay [1], 3.1 µM. Further, the Ratio in the assay with L6 [2] turned out to be 41. Regarding `CC(C)(C)OC(=O)N1CCC(N2CCN(C(=O)OC(C)(C)C)CC2)CC1`, inhibition in assay [1] was half-maximal at 30.3 µM (IC50). `N=C(N)NCCCNCCNC(=N)N`: in assay [1], the concentration for half-maximal inhibition (IC50) came out at 21.4 µM. `N=C(N)NCCCCCCNC(=N)N`: the half-inhibitory concentration (IC50) was more than 302 µM with L6 [3] and 8.05 µM in assay [1]. For the same compound, in the assay with L6 [2], the Ratio was more than 37. For the compound `c1cc(NC2=NCCN2)ccc1Cc1ccc(NC2=NCCN2)cc1`, the Ratio in the assay with L6 [2] was 71. As for `CC(C)(C)OC(=O)N1CCN(C(=O)OC(C)(C)C)C1=Nc1ccc(Nc2ccc(N=C3N(C(=O)OC(C)(C)C)CCN3C(=O)OC(C)(C)C)cc2)cc1`, the Ratio with L6 [2] amounted to 202. As to `O=C(c1ccc(Br)cc1)c1ccc(Br)cc1`, the 50% inhibitory concentration (IC50) in the assay on L6 [3] is more than 244 µM; in assay [1], 25.9 µM. In addition, in the assay on L6 [2], the Ratio is more than 9.4. The like results for `O=C(NCCCN(CCO)CCNC(=O)OCc1ccccc1)OCc1ccccc1` were, in that order, 116 µM, 14 µM and 8.3. For `CC(=O)OCCN(CCCNC(=O)OCc1ccccc1)CCNC(=O)OCc1ccccc1`, the figures for the IC50 (with L6 [3]; in assay [1]) were more than 191 µM and 7.1 µM, respectively. Also, the Ratio with L6 [2] was more than 26.

For `CN(CCN)CCCN`, the IC50 in assay [1] was 61.8 µM.

On to `C(CCCCCCNC1=NCCN1)CCCCCNC1=NCCN1`, for which the half-maximal inhibitory concentration (IC50) came to 2.35 µM with L6 [3] and 0.107 µM in assay [1]. In addition, the Ratio with L6 [2] is reported as 22. The like results for `C(CCCCNC1=NCCN1)CCCCNC1=NCCN1` were, in that order, 16 µM, 0.225 µM and 71. `NCCCN(CCN)CCc1c[nH]c2ccccc12` gave a concentration for half-maximal inhibition (IC50) in assay [1] of 13.8 µM.

For `C1CC(N2CCNCC2)CCN1`, inhibition in assay [1] was half-maximal at 57.9 µM (IC50). For the compound `N=C(N)NCCCNCCCNC(=N)N`, the IC50 in assay [1] turned out to be 21.2 µM.

Compound `CC(C)(C)OC(=O)NCC/N=C(\S)N1CCC(N2CCN(/C(S)=N\CCNC(=O)OC(C)(C)C)CC2)CC1` returned an IC50 in assay [1] of 12.6 µM. On to `NCCCN(CCN)CCc1ccccc1`, for which the IC50 is 214 µM in the assay on L6 [3] and 17.4 µM in assay [1]. Further, the Ratio with L6 [2] amounted to 12.

As for `N=C(N)Nc1ccc(Cc2ccc(NC(=N)N)cc2)cc1`, the Ratio in the assay on L6 [2] was 17.4. For `O=C(NCCCN(CCNC(=O)OCc1ccccc1)CCc1c[nH]c2ccccc12)OCc1ccccc1`, the figures for the IC50 (in the assay with L6 [3]; in assay [1]) were 7.8 µM and 1 µM, respectively. Besides, in the assay with L6 [2], the Ratio is 7.8.

For the compound `CC(C)(C)OC(=O)N1CCN(C(=O)OC(C)(C)C)C1=Nc1ccc(S(=O)(=O)c2ccc(N=C3N(C(=O)OC(C)(C)C)CCN3C(=O)OC(C)(C)C)cc2)cc1`, the Ratio in the assay with L6 [2] worked out at 21.7.

Regarding `N=C(N)NCCCN(CCNC(=N)N)CCc1ccccc1`, the IC50 was more than 199 µM in the assay on L6 [3] and 4.5 µM in assay [1]. Moreover, in the assay with L6 [2], the Ratio is on record as more than 43.

In the case of `O=C(CN1CCCN(C(=O)OCc2ccccc2)C1)OCc1ccccc1`, the values for the IC50 (in the assay on L6 [3]; in assay [1]) were 89 µM and 4.78 µM, respectively. In the assay with L6 [2], the Ratio is reported as 18.6. Compound `C(CNCCNC1=NCCN1)CNC1=NCCN1` had a half-inhibitory concentration (IC50) in assay [1] of 69.1 µM. Turning to `c1cc(-c2ccc(NC3=NCCN3)cc2)ccc1NC1=NCCN1`, the half-maximal inhibitory concentration (IC50) in the assay on L6 [3] is 104 µM; in assay [1] it was 0.118 µM. Also, the Ratio in the assay on L6 [2] was 881. On to `C1CCC(NC(=NCCCNCCN=C(NC2CCCCC2)NC2CCCCC2)NC2CCCCC2)CC1`, for which the IC50 in assay [1] is 2.4 µM. On to `Nc1ccc(-c2ccc(N)cc2)cc1` [BENZIDINE], for which the values for the IC50 (in the assay on L6 [3]; in assay [1]) were more than 217 µM and 1.42 µM, respectively. Moreover, the Ratio in the assay with L6 [2] was more than 152. In assay [1], `N=C(N)c1ccc(/N=N/Nc2ccc(C(=N)N)cc2)cc1` [DIMINAZENE DIACETURATE] gave a half-maximal inhibitory concentration (IC50) of 0.0089 µM. In the case of `CCCCCCCCCCCCNC(=N)N` [DODINE], the concentration for half-maximal inhibition (IC50) in the assay on L6 [3] is 19.6 µM; in assay [1], 11 µM. In addition, the Ratio with L6 [2] is given as 1.8. `Nc1nc(N)nc(Nc2ccc([As]3SCC(CO)S3)cc2)n1` (stereo unspecified) [MELARSOPROL]: the half-inhibitory concentration (IC50) in assay [1] is 5.5 µM. For the same compound, the Ratio in the assay on L6 [2] worked out at 3456.

Source of the values: ChEMBL document CHEMBL1149160, “Bisguanidine, bis(2-aminoimidazoline), and polyamine derivatives as potent and selective chemotherapeutic agents against Trypanosoma brucei rhodesiense. Synthesis and in vitro evaluation” (J Med Chem, 2004).
